Data from paper PMC5516028, “Molecular tools for GABAA receptors: High affinity ligands for β1-containing subtypes” (Scientific Reports, 2017).
Values joined by “and” are separate entries in the source; they are usually repeats but may differ in a detail not shown here. Equal values may be shown once.

Legend:
Type in all cases: cell-based
α1β3N41R GABAA receptors = target: T1, α1β3N41R GABAA receptors (Rattus norvegicus, UniProt P62813+P63079, N66R); assay: Two electrode voltage clamp in Xenopus laevis oocytes, mutant α1β3N41R
T1 construct: expressed in transfected cells; host or cells: Xenopus laevis oocytes, mRNA injected
Excerpt: (§1) cDNA’s of rat GABAA receptor subunits α1, α4, β1, β2, β3 and γ2S were cloned as described. cDNAs of the rat subunits α2, α3 and α5 were gifts from P. Malherbe, that of α6 and γ1 were gifts of P. Seeburg and that of δ was a gift of C. Czajkowski. The mutants were constructed using the Q5 Site-Directed Mutagenesis Kit (New England Biolabs) following manufacturer’s instruction. We used the wild-type rat β3-pCI vector as template and the primers […] and […] resulting in a substitution of amino acid N41 (AAC) to R (AGG). We used the wild-type rat β1-pCI vector as template and the primers […] and […] resulting in a substitution of amino acid R41 (CGG) to N (AAC). The mutated subunits were confirmed by sequencing.
(§2) In vitro transcription of mRNA was based on the cDNA expression vectors encoding for rat GABAA receptor subunits α1–6, β1-3, γ1,2, δ and the two β mutants (β1R41N and β3N41R)[40]. After linearizing the cDNA vectors with appropriate restriction endonucleases, the cDNA was purified and concentrated with the DNA Clean and Contentrator ^TM Kit (Zymoresearch, Catalog No. D4005). Capped transcripts of the purified cDNA were produced using the mMESSAGE mMACHINE® T7 transcription kit (Ambion, TX, USA) and polyadenylated using the Ambion PolyA tailing kit (Ambion). After transcription and polyadenylation the RNA was purified with the MEGAclear ^TM Kit (Ambion, Catalog No. AM1908). The final RNA concentration was measured on NanoDrop® ND-1000 and finally diluted and stored in diethylpyrocarbonate-treated water at −80 °C. For the microinjection, the RNA of αβ receptor combinations was mixed at 1:1 ratio (which leads to αβ receptors that consist of predominantly 3 beta and 2 alpha subunits[27]), for αkβlγm (k = 1–3, l = 1, 3, m = 1, 2) receptors at 1:1:5 ratio, for αkβ3γ2 (k = 4–6) and αkβlδ (k = 1, 4 and 6, l = 1, 3) receptor combinations at 3:1:5 ratio.
(§3) Mature female Xenopus laevis (Nasco, WI) were anesthetized in a bath of ice-cold 0.17% Tricain (Ethyl-m-aminobenzoate, Sigma, MO) before decapitation in full accordance with all rules of the Austrian animal protection law (see http://www.ris.bka.gv.at/Dokumente/BgblAuth/BGBLA_2012_I_114/BGBLA_2012_I_114.pdf) and the Austrian animal experiment by-laws (see https://www.ris.bka.gv.at/Dokumente/BgblAuth/BGBLA_2012_II_522/BGBLA_2012_II_522.pdf) which implement the European Directive 2010/63/EU (see http://eur-lex.europa.eu/LexUriServ/LexUriServ.do?uri=OJ:L:2010:276:0033:0079:en:PDF) into the Austrian law (all information accessed on July 27, 2016). The frog’s ovaries were transferred to ND96 medium (96 mM NaCl, 2 mM KCl, 1 mM MgCl2, 5 mM HEPES; pH 7.5). Stage 5–6 oocytes with the follicle cell layer around them were roughly dissected with forceps into packages of 10–15 cells and washed in Ca^2+-free ND96 medium. Cells were then digested with collagenase (type IA, Sigma, NO, 1 mg/mL ND96) at 18 °C shaking at 30 rpm for 30–60 minutes and gently defolliculated with the aid of a glass pipette with appropriate tip diameter and a platinum loop. Defolliculated cells were stored at 18 °C for at least 6 hours in ND96 solution containing penicillin G (10000 IU/100 mL) and streptomycin (10 mg/100 mL) in order to preselect and exclude damaged cells from further treatment. Healthy defolliculated oocytes were injected with an aqueous solution of mRNA. A total of 4.5 ng of mRNA per oocyte was injected with a Nanoject II (Drummond). After injection of mRNA, oocytes were incubated at 18 °C (ND96 + antibiotic) for 2–3 days for αβ receptors and for 3–4 days for αβγ or αβδ receptors before recording. When cells were measured at later time points, oocytes were stored at +4 °C instead of 18 °C.
(§4) For electrophysiological recordings, oocytes were placed on a nylon-grid in a bath of Ca^2+-containing NDE solution medium [96 mM NaCl, 5 mM HEPES-NaOH (pH 7.5), 2 mM KCl, 1 mM MgCl2, 1.8 mM CaCl2].

α1β1R41N GABAA receptors = target: T2, α1β1R41N GABAA receptors (Rattus norvegicus, UniProt P15431+P62813, R66N); assay: Two electrode voltage clamp in Xenopus laevis oocytes, mutant α1β1R41N
T2 construct: expressed in transfected cells; host or cells: Xenopus laevis oocytes, mRNA injected
Excerpt: as §1, §2, §3, §4

α1β3 GABAA receptors = target: T3, α1β3 GABAA receptors (Rattus norvegicus, UniProt P62813+P63079); assay: Two electrode voltage clamp in Xenopus laevis oocytes, α1β3; conditions: α1β3
T3 construct: expressed in transfected cells; host or cells: Xenopus laevis oocytes, mRNA injected
Excerpt: as §1, §2, §3, §4

α1β2 GABAA receptors = target: T4, α1β2 GABAA receptors (Rattus norvegicus, UniProt P62813+P63138); assay: Two electrode voltage clamp in Xenopus laevis oocytes, α1β2; conditions: α1β2
T4 construct: expressed in transfected cells; host or cells: Xenopus laevis oocytes, mRNA injected
Excerpt: as §1, §2, §3, §4

α1β1 GABAA receptors = target: T5, α1β1 GABAA receptors (Rattus norvegicus, UniProt P15431+P62813); assay: Two electrode voltage clamp in Xenopus laevis oocytes, α1β1
T5 construct: expressed in transfected cells; host or cells: Xenopus laevis oocytes, mRNA injected
Excerpt: as §1, §2, §3, §4

α1β1δ GABAA receptors = target: T6, α1β1δ GABAA receptors (Rattus norvegicus, UniProt P15431+P62813); assay: Two electrode voltage clamp in Xenopus laevis oocytes, α1β1δ
T6 construct: expressed in transfected cells; host or cells: Xenopus laevis oocytes, mRNA injected
Excerpt: as §1, §2, §3, §4

α1β1γ1 GABAA receptors = target: T7, α1β1γ1 GABAA receptors (Rattus norvegicus, UniProt P15431+P62813); assay: Two electrode voltage clamp in Xenopus laevis oocytes, α1β1γ1
T7 construct: expressed in transfected cells; host or cells: Xenopus laevis oocytes, mRNA injected
Excerpt: as §1, §2, §3, §4

T2 sequence (P62813 28-455): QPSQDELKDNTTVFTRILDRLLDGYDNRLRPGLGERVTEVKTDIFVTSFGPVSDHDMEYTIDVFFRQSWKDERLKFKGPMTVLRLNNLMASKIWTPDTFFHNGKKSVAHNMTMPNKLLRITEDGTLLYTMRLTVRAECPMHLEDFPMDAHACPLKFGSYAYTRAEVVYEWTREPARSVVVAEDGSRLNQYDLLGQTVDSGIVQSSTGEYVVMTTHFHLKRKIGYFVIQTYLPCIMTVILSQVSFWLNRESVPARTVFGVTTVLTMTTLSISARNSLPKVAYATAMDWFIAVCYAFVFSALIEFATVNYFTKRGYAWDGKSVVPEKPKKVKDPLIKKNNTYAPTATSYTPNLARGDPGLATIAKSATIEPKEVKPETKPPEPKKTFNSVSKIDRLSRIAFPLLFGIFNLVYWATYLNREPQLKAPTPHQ
T2 sequence (P15431 26-474 R66N): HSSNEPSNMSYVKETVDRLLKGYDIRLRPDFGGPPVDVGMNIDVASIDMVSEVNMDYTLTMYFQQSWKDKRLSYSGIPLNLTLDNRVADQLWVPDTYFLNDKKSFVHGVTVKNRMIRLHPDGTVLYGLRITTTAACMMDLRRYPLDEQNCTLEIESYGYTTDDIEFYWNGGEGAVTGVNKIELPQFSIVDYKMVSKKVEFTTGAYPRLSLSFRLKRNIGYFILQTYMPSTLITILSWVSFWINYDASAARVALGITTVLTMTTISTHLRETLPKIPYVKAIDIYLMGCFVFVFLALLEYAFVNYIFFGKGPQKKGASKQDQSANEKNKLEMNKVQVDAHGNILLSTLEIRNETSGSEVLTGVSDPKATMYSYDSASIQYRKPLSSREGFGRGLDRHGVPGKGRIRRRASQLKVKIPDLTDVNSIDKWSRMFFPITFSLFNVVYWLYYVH
T3 sequence (P62813 28-455): as the sequence (P62813 28-455) above
T3 sequence (P63079 26-473): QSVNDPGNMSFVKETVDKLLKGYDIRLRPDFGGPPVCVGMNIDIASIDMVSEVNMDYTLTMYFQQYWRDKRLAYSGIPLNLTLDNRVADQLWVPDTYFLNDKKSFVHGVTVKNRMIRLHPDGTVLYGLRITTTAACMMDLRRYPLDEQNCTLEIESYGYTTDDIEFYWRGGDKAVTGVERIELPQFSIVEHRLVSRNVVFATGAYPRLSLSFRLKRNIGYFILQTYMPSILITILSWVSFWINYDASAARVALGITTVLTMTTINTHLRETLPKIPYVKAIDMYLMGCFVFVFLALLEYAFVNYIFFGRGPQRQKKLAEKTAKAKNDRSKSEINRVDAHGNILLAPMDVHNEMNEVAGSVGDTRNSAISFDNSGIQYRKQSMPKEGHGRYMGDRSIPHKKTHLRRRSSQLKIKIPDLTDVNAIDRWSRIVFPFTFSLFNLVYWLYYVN
T6 sequence (P62813 28-455): as the sequence (P62813 28-455) above
T6 sequence (P15431 26-474): as the sequence (P15431 26-474 R66N) above, with N41R counted along it
T6 sequence (P18506 17-449 partner limits assumed): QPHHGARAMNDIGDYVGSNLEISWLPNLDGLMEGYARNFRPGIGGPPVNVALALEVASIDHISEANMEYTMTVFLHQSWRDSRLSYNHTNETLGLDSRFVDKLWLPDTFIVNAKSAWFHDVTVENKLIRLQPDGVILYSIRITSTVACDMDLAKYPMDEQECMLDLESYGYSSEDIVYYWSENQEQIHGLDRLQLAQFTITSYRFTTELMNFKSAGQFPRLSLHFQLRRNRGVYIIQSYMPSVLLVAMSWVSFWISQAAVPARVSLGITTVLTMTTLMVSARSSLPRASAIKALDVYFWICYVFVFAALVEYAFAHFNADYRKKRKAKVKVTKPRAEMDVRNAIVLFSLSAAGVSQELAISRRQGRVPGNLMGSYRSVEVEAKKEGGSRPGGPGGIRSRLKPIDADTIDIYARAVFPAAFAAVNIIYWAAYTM
T5 sequence (P62813 28-455): as the sequence (P62813 28-455) above
T5 sequence (P15431 26-474): as the sequence (P15431 26-474 R66N) above, with N41R counted along it
T1 sequence (P62813 28-455): as the sequence (P62813 28-455) above
T1 sequence (P63079 26-473 N66R): as the sequence (P63079 26-473) above, with N41R counted along it
T7 sequence (P62813 28-455): as the sequence (P62813 28-455) above
T7 sequence (P15431 26-474): as the sequence (P15431 26-474 R66N) above, with N41R counted along it
T7 sequence (P23574 36-465 partner limits assumed): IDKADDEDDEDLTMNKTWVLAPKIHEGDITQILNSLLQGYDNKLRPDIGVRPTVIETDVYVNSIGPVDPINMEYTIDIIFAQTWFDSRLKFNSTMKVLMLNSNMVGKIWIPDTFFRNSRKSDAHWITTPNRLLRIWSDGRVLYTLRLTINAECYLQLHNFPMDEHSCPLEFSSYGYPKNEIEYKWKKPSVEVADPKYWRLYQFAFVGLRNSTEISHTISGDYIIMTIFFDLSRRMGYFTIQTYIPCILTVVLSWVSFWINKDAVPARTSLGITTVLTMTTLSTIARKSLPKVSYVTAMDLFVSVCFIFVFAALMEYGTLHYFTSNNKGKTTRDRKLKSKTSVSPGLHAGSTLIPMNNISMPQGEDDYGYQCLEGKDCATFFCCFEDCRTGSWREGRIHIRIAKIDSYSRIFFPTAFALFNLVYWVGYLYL
T4 sequence (P62813 28-455): as the sequence (P62813 28-455) above
T4 sequence (P63138 25-474 limits assumed): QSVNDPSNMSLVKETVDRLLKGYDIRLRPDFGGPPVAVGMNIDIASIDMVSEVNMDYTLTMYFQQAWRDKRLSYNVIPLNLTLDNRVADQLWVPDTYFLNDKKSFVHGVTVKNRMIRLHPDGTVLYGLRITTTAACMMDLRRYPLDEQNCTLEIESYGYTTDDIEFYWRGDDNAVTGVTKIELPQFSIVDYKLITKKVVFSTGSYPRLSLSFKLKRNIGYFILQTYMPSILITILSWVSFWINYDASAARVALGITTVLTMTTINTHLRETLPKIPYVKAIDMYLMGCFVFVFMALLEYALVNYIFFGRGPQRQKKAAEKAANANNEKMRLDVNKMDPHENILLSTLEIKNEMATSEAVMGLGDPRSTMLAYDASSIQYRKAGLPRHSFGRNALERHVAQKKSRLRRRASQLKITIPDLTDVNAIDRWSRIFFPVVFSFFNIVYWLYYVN

## NCCCC(=O)O [GABA, γ-Aminobutyric acid]
α1β3N41R GABAA receptors; 100 nM GABA
  GABA current amplitude: 0.0±0.0 µA
α1β3N41R GABAA receptors; 1 µM GABA
  GABA current amplitude: 1.3±0.5 µA
α1β3N41R GABAA receptors; 10 μM GABA
  GABA current amplitude: 3.5±0.9 µA
α1β3N41R GABAA receptors; 100 µM GABA
  GABA current amplitude: 4.0±1.1 µA
α1β3N41R GABAA receptors; 1 mM GABA
  GABA current amplitude: 4.1±1.2 µA
α1β3N41R GABAA receptors; GABA dose-response curve
  GABA Hill slope (nH): 1.2±0.1 and ~ 1.2
α1β1R41N GABAA receptors; 100 nM GABA
  GABA current amplitude: 0.1±0.0 µA
α1β1R41N GABAA receptors; 1 µM GABA
  GABA current amplitude: 0.7±0.1 µA
α1β1R41N GABAA receptors; 10 μM GABA
  GABA current amplitude: 2.3±0.5 µA
α1β1R41N GABAA receptors; 100 µM GABA
  GABA current amplitude: 2.9±0.7 µA
α1β1R41N GABAA receptors; 1 mM GABA
  GABA current amplitude: 2.8±0.8 µA
α1β1R41N GABAA receptors; GABA dose-response curve
  GABA Hill slope (nH): 1.2±0.1 and ~ 1.2
α1β3 GABAA receptors; 100 nM GABA
  GABA current amplitude: 0.0±0.0 µA
α1β3 GABAA receptors; 1 µM GABA
  GABA current amplitude: 0.5±0.1 µA
α1β3 GABAA receptors; 10 μM GABA
  GABA current amplitude: 1.9±0.3 µA
α1β3 GABAA receptors; 100 µM GABA
  GABA current amplitude: 2.7±0.4 µA
α1β3 GABAA receptors; 1 mM GABA
  GABA current amplitude: 3.5±0.5 µA
α1β3 GABAA receptors; GABA dose-response curve
  GABA Hill slope (nH): 0.7±0.0
α1β2 GABAA receptors; 100 nM GABA
  GABA current amplitude: 0.0±0.0 µA
α1β2 GABAA receptors; 1 µM GABA
  GABA current amplitude: 0.5±0.2 µA
α1β2 GABAA receptors; 10 μM GABA
  GABA current amplitude: 1.9±0.5 µA
α1β2 GABAA receptors; 100 µM GABA
  GABA current amplitude: 2.6±0.6 µA
α1β2 GABAA receptors; 1 mM GABA
  GABA current amplitude: 3.1±0.7 µA
α1β2 GABAA receptors; GABA dose-response curve
  GABA Hill slope (nH): 0.7±0.1
α1β1 GABAA receptors; α1β1, 100 nM GABA
  GABA current amplitude: 0.1±0.0 µA
α1β1 GABAA receptors; α1β1, 1 µM GABA
  GABA current amplitude: 0.7±0.1 µA
α1β1 GABAA receptors; α1β1, 10 μM GABA
  GABA current amplitude: 2.2±0.3 µA
α1β1 GABAA receptors; α1β1, 100 µM GABA
  GABA current amplitude: 3.1±0.4 µA
α1β1 GABAA receptors; α1β1, 1 mM GABA
  GABA current amplitude: 4.0±0.5 µA
α1β1 GABAA receptors; α1β1, GABA dose-response curve
  GABA Hill slope (nH): 0.6±0.3

## COc1ccc(-n2nc3c4cc(Cl)cc(C(C)(C)C)c4[nH]cc-3c2=O)cc1 [Compound 7, 6-(tert-Butyl)-8-chloro-2-(4-methoxyphenyl)-2,5-dihydro-3H-pyrazolo[4,3-c]quinolin-3-one]
α1β1δ GABAA receptors; read-out: EC50
  EC50: 2.3 µM
α1β1δ GABAA receptors; read-out: efficacy, % of control current (GABA EC3-5 = 100%), α1β1δ, 3 nM
  activity at 0.003 µM: 100 ± 0.7%
α1β1δ GABAA receptors; read-out: efficacy, % of control current (GABA EC3-5 = 100%), α1β1δ, 10 nM
  activity at 0.01 µM: 106 ± 2.8%
α1β1δ GABAA receptors; read-out: efficacy, % of control current (GABA EC3-5 = 100%), α1β1δ, 30 nM
  activity at 0.03 µM: 108 ± 5.2%
α1β1δ GABAA receptors; read-out: efficacy, % of control current (GABA EC3-5 = 100%), α1β1δ, 100 nM
  activity at 0.1 µM: 128 ± 3.4%
α1β1δ GABAA receptors; read-out: efficacy, % of control current (GABA EC3-5 = 100%), α1β1δ, 300 nM
  activity at 0.3 µM: 163 ± 6.2%
α1β1δ GABAA receptors; read-out: efficacy, % of control current (GABA EC3-5 = 100%), α1β1δ, 1 µM
  activity at 1 µM: 381 ± 48.7%
α1β1δ GABAA receptors; read-out: efficacy, % of control current (GABA EC3-5 = 100%), α1β1δ, 3 µM
  activity at 3 µM: 636 ± 116%
α1β1δ GABAA receptors; read-out: efficacy, % of control current (GABA EC3-5 = 100%), α1β1δ, 10 µM
  activity at 10 µM: 885 ± 293%
α1β1δ GABAA receptors; α1β1δ
  Hill slope (nH): 1.1±0.8
α1β1γ1 GABAA receptors
  EC50: 21 µM
α1β1γ1 GABAA receptors; read-out: efficacy, % of control current (GABA EC3-5 = 100%), α1β1γ1, 3 nM
  activity at 0.003 µM: 105.1 ± 0.7%
α1β1γ1 GABAA receptors; read-out: efficacy, % of control current (GABA EC3-5 = 100%), α1β1γ1, 10 nM
  activity at 0.01 µM: 106 ± 1.9%
α1β1γ1 GABAA receptors; read-out: efficacy, % of control current (GABA EC3-5 = 100%), α1β1γ1, 30 nM
  activity at 0.03 µM: 108 ± 1.4%
α1β1γ1 GABAA receptors; read-out: efficacy, % of control current (GABA EC3-5 = 100%), α1β1γ1, 100 nM
  activity at 0.1 µM: 112 ± 0.9%
α1β1γ1 GABAA receptors; read-out: efficacy, % of control current (GABA EC3-5 = 100%), α1β1γ1, 1 µM
  activity at 1 µM: 121 ± 3.2%
α1β1γ1 GABAA receptors; read-out: efficacy, % of control current (GABA EC3-5 = 100%), α1β1γ1, 3 µM
  activity at 3 µM: 159 ± 3.2%
α1β1γ1 GABAA receptors; read-out: efficacy, % of control current (GABA EC3-5 = 100%), α1β1γ1, 10 µM
  activity at 10 µM: 175 ± 13.6%
α1β1γ1 GABAA receptors; α1β1γ1
  Hill slope (nH): 0.6±0.2
α1β1 GABAA receptors; α1β1, α1β1γ1 and α1β1δ receptors (Fig. 6), versus compound 1
  shift of modulatory dose-response relative to parent compound 1: approximately twenty-fold right shift
